What was measured:
[1] = tested on: Puccinia recondita f. Sp. Tritici; assay: Fungicidal activity against Puccinia recondita f. sp. tritici / wheat / leaf disc preventative (brown rust); format: in vivo; settings: foliar, 200 ppm in the applied formulation, wheat leaf segments, preventative, compared to untreated control leaf disks, read-out: disease control
In short: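 Percent disease control relative to untreated check segments is scored once disease develops, 7 to 9 days after application. Wheat cv. Kanzler segments receive compound spray (200 ppm in formulation) one day before spore inoculation, then sit at 19° C. and 75% rh under 12 h light/12 h dark.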

[2] = tested on: Puccinia recondita f. Sp. Tritici; assay: Fungicidal activity against Puccinia recondita f. sp. tritici / wheat / leaf disc curative (brown rust); format: in vivo; settings: foliar, 24 h, 200 ppm in the applied formulation, wheat leaf segments, curative (applied 1 day after inoculation), compared to untreated control leaf disks, read-out: disease control
In short: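 Inoculate cv. Kanzler segments on agar; hold dark, 19° C, 75% RH. Spray diluted formulated compound at day 1. Incubate 12 h light/12 h dark, same temperature and humidity; score % control vs untreated 6–8 days later.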

Phakopsora Pachyrhizi = assay: Fungicidal activity against Phakopsora pachyrhizi / soybean / leaf disc preventative (Asian soybean rust); format: in vivo; settings: foliar, 200 ppm in the applied formulation, soybean leaf disks, compared to untreated control leaf disks, read-out: disease control
In short: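 Scored 12 to 14 days post-application as percent control relative to untreated check discs, rust spores were sprayed under the disc one day after compound treatment. Incubation: 20°C, 75% rh, first 24–36 h in darkness, then 12 h daily light; discs kept on water agar.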

[3] = tested on: Glomerella lagenarium (Colletotrichum lagenarium); assay: Fungicidal activity against Glomerella lagenarium (Colletotrichum lagenarium) liquid culture / cucumber / preventative (anthracnose); format: cell-based; settings: Colletotrichum orbiculare; 20 ppm in the applied formulation; liquid culture (PDB), growth inhibition measured photometrically after 3 to 4 days; compared to untreated control; read-out: disease control
In short: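 Percent activity against the untreated check was derived from photometric growth measurements made 2 to 7 days after conidia in potato dextrose broth were combined with compound at 20 ppm. Cultures were kept dark at 24 °C and 96% humidity.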

CN(Cc1ccc(-c2noc(C(F)(F)F)n2)cc1)C(=O)C1(C)COC1 [Compound 1.527, N,3-dimethyl-N-[[4-[5-(trifluoromethyl)-1,2,4-oxadiazol-3-yl]phenyl]methyl]-oxetane-3-carboxamide]
≥ 80%: pest or weed control at 200 ppm [1] | pest or weed control at 200 ppm [2] | pest or weed control at 200 ppm (Phakopsora Pachyrhizi) | inhibition of growth at 20 ppm [3]

CN(Cc1ccc(-c2noc(C(F)(F)F)n2)cc1)C(=O)C1CCCO1 (stereo not shown) [Compound 1.528, N-methyl-N-[[4-[5-(trifluoromethyl)-1,2,4-oxadiazol-3-yl]phenyl]methyl]-tetrahydrofuran-2-carboxamide]
≥ 80%: pest or weed control at 200 ppm [1] | pest or weed control at 200 ppm [2] | pest or weed control at 200 ppm (Phakopsora Pachyrhizi) | inhibition of growth at 20 ppm [3]

CN(Cc1ccc(-c2noc(C(F)(F)F)n2)cc1)C(=O)C1CC1F (stereo not shown) [Compound 1.529, 2-fluoro-N-methyl-N-[[4-[5-(trifluoromethyl)-1,2,4-oxadiazol-3-yl]phenyl]methyl]-cyclopropane-carboxamide]
≥ 80%: pest or weed control at 200 ppm [1] | pest or weed control at 200 ppm [2] | pest or weed control at 200 ppm (Phakopsora Pachyrhizi) | inhibition of growth at 20 ppm [3]

CN(Cc1ccc(-c2noc(C(F)(F)F)n2)cc1)C(=O)C1OCCO1 [Compound 1.531, N-methyl-N-[[4-[5-(trifluoromethyl)-1,2,4-oxadiazol-3-yl]phenyl]methyl]-1,3-dioxolane-2-carboxamide]
≥ 80%: pest or weed control at 200 ppm [1] | pest or weed control at 200 ppm [2] | pest or weed control at 200 ppm (Phakopsora Pachyrhizi) | inhibition of growth at 20 ppm [3]

CN(Cc1ccc(-c2noc(C(F)(F)F)n2)cc1)C(=O)C1CC1 [Compound 1.532, N-methyl-N-[[4-[5-(trifluoromethyl)-1,2,4-oxadiazol-3-yl]phenyl]methyl]-cyclopropane-carboxamide]
≥ 80%: pest or weed control at 200 ppm [1] | pest or weed control at 200 ppm [2] | pest or weed control at 200 ppm (Phakopsora Pachyrhizi) | inhibition of growth at 20 ppm [3]

CON(Cc1ccc(-c2noc(C(F)(F)F)n2)cc1F)C(=O)C1CCCO1 (stereo not shown) [Compound 1.563, N-[[2-fluoro-4-[5-(trifluoromethyl)-1,2,4-oxadiazol-3-yl]phenyl]methyl]-N-methoxy-tetrahydrofuran-2-carboxamide]
≥ 80%: pest or weed control at 200 ppm [1] | pest or weed control at 200 ppm [2] | pest or weed control at 200 ppm (Phakopsora Pachyrhizi) | inhibition of growth at 20 ppm [3]

CCON(Cc1ccc(-c2noc(C(F)(F)F)n2)cc1)C(=O)C1CC1 [Compound 1.564, N-ethoxy-N-[[4-[5-(trifluoromethyl)-1,2,4-oxadiazol-3-yl]phenyl]methyl]-cyclopropane-carboxamide]
≥ 80%: pest or weed control at 200 ppm [1] | pest or weed control at 200 ppm [2] | pest or weed control at 200 ppm (Phakopsora Pachyrhizi) | inhibition of growth at 20 ppm [3]

CON(Cc1ccc(-c2noc(C(F)(F)F)n2)cc1F)C(=O)C1CC1 [Compound 1.566, N-[[2-fluoro-4-[5-(trifluoromethyl)-1,2,4-oxadiazol-3-yl]phenyl]methyl]-N-methoxy-cyclopropane-carboxamide]
≥ 80%: pest or weed control at 200 ppm [1] | pest or weed control at 200 ppm [2] | pest or weed control at 200 ppm (Phakopsora Pachyrhizi) | inhibition of growth at 20 ppm [3]

CCON(Cc1ccc(-c2noc(C(F)(F)F)n2)cc1)C(=O)COC [Compound 1.567, N-ethoxy-2-methoxy-N-[[4-[5-(trifluoromethyl)-1,2,4-oxadiazol-3-yl]phenyl]methyl]-acetamide]
≥ 80%: pest or weed control at 200 ppm [1] | pest or weed control at 200 ppm [2] | pest or weed control at 200 ppm (Phakopsora Pachyrhizi) | inhibition of growth at 20 ppm [3]

CON(Cc1ccc(-c2noc(C(F)(F)F)n2)cn1)C(=O)C1CCCO1 (stereo not shown) [Compound 1.569, N-methoxy-N-[[5-[5-(trifiuoromethyl)-1,2,4-oxadiazol-3-yl]-2-pyridyl]methyl]-tetrahydrofuran-2-carboxamide]
≥ 80%: pest or weed control at 200 ppm [1] | pest or weed control at 200 ppm [2] | pest or weed control at 200 ppm (Phakopsora Pachyrhizi) | inhibition of growth at 20 ppm [3]

CON(Cc1ccc(-c2noc(C(F)(F)F)n2)cn1)C(=O)C1CC1 [Compound 1.570, N-methoxy-N-[[5-[5-(trifluoromethyl)-1,2,4-oxadiazol-3-yl]-2-pyridyl]methyl]cyclopropanecarboxamide]
≥ 80%: pest or weed control at 200 ppm [1] | pest or weed control at 200 ppm [2] | pest or weed control at 200 ppm (Phakopsora Pachyrhizi) | inhibition of growth at 20 ppm [3]

CCCN(Cc1ccc(-c2noc(C(F)(F)F)n2)cc1)C(=O)CC [Compound 1.573, N-propyl-N-[[4-[5-(trifluoromethyl)-1,2,4-oxadiazol-3-yl]phenyl]methyl]-propanamide]
≥ 80%: pest or weed control at 200 ppm [1] | pest or weed control at 200 ppm [2] | pest or weed control at 200 ppm (Phakopsora Pachyrhizi) | inhibition of growth at 20 ppm [3]

CCCN(Cc1ccc(-c2noc(C(F)(F)F)n2)cc1)C(=O)C1CC1 [Compound 1.574, N-propyl-N-[[4-[5-(trifluoromethyl)-1,2,4-oxadiazol-3-yl]phenyl]methyl]-cyclopropane-carboxamide]
≥ 80%: pest or weed control at 200 ppm [1] | pest or weed control at 200 ppm [2] | pest or weed control at 200 ppm (Phakopsora Pachyrhizi) | inhibition of growth at 20 ppm [3]

CCCN(Cc1ccc(-c2noc(C(F)(F)F)n2)cc1)C(=O)COC [Compound 1.575, 2-methoxy-N-propyl-N-[[4-[5-(trifluoromethyl)-1,2,4-oxadiazol-3-yl]phenyl]methyl]-acetamide]
≥ 80%: pest or weed control at 200 ppm [1] | pest or weed control at 200 ppm [2] | pest or weed control at 200 ppm (Phakopsora Pachyrhizi) | inhibition of growth at 20 ppm [3]

CON(Cc1ccc(-c2noc(C(F)(F)F)n2)c(F)c1F)C(=O)C1CCCO1 (stereo not shown) [Compound 1.577, N-[[2,3-difluoro-4-[5-(trifluoromethyl)-1,2,4-oxadiazol-3-yl]phenyl]methyl]-N-methoxy-tetrahydrofuran-2-carboxamide]
≥ 80%: pest or weed control at 200 ppm [1] | pest or weed control at 200 ppm [2] | pest or weed control at 200 ppm (Phakopsora Pachyrhizi) | inhibition of growth at 20 ppm [3]

CON(Cc1ccc(-c2noc(C(F)(F)F)n2)c(F)c1)C(=O)C1CCCO1 (stereo not shown) [Compound 1.578, N-[[3-fluoro-4-[5-(trifluoromethyl)-1,2,4-oxadiazol-3-yl]phenyl]methyl]-N-methoxy-tetrahydrofuran-2-carboxamide]
≥ 80%: pest or weed control at 200 ppm [1] | pest or weed control at 200 ppm [2] | pest or weed control at 200 ppm (Phakopsora Pachyrhizi) | inhibition of growth at 20 ppm [3]

CON(Cc1ccc(-c2noc(C(F)(F)F)n2)c(F)c1)C(=O)C1CC1 [Compound 1.579, N-[[3-fluoro-4-[5-(trifluoromethyl)-1,2,4-oxadiazol-3-yl]phenyl]methyl]-N-methoxy-cyclopropane-carboxamide]
≥ 80%: pest or weed control at 200 ppm [1] | pest or weed control at 200 ppm [2] | pest or weed control at 200 ppm (Phakopsora Pachyrhizi) | inhibition of growth at 20 ppm [3]

CCC(=O)N(Cc1ccc(-c2noc(C(F)(F)F)n2)c(F)c1)OC [Compound 1.580, N-[[3-fluoro-4-[5-(trifluoromethyl)-1,2,4-oxadiazol-3-yl]phenyl]methyl]-N-methoxy-propanamide]
≥ 80%: pest or weed control at 200 ppm [1] | pest or weed control at 200 ppm [2] | pest or weed control at 200 ppm (Phakopsora Pachyrhizi) | inhibition of growth at 20 ppm [3]

CCC(=O)N(Cc1ccc(-c2noc(C(F)(F)F)n2)cc1)CC(F)(F)F [Compound 1.582, N-(2,2,2-trifluoroethyl)-N-[[4-[5-(trifluoromethyl)-1,2,4-oxadiazol-3-yl]phenyl]methyl]-propanamide]
≥ 80%: pest or weed control at 200 ppm [1] | pest or weed control at 200 ppm [2] | pest or weed control at 200 ppm (Phakopsora Pachyrhizi) | inhibition of growth at 20 ppm [3]
